Source: patent US20250179045A1, “LPAR1 ANTAGONISTS AND USES THEREOF” (Contineum Therapeutics, Inc., priority 2021, published 2025)
Read-outs that look alike come from different tables or passages of the source.

Target: human LPA1 (Homo sapiens, UniProt Q92633)
Assay: In vitro functional assay of lysophosphatidic acid receptor 1 activity (calcium flux)
Format: cell-based
Details: Fluo-4 NW calcium flux after lysophosphatidic acid (18:1) at EC80, compounds 100 pM to 10 μM
Method in brief: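 B103 cells stably expressing human LPA1 plated onto compound for 24 h at 37 °C, loaded with Fluo-4 NW dye, re-exposed to compound (30 min 37 °C plus 30 min room temp).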

[1] = B103 cells stably expressing human LPA1, read-out: LPA1 IC50

Sequence of human LPA1 (Q92633 whole entry): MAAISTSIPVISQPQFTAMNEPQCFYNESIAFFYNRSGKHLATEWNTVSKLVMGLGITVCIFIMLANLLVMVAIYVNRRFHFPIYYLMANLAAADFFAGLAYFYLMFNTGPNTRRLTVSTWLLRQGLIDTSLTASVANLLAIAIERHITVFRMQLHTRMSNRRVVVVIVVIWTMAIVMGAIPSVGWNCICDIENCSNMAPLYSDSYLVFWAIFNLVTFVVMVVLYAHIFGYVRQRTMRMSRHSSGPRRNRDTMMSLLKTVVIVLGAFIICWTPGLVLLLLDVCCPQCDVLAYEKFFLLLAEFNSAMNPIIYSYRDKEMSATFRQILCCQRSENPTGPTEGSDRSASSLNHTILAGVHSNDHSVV

Question: How did the IC50 (LPA1 IC50, B103 cells stably expressing human LPA1) turn out when `COc1ccc(NC(=O)C2(c3ccccc3C(C)C)CCNC(=O)C2)c(OC(F)F)n1` (centres unmarked) [Example 116, N-(2-(difluoromethoxy)-6-methoxypyridin-3-yl)-4-(2-isopropylphenyl)-2-oxopiperidine-4-carboxamide] was run?
Answer: 100 to 1000 nM

Question: With `COc1ccc(NC(=O)[C@]2(c3ccccc3C(C)C)C[C@H](CC(N)=O)C2)c(OC(F)F)n1` [Example 117, cis-3-(2-amino-2-oxoethyl)-N-(2-(difluoromethoxy)-6-methoxypyridin-3-yl)-1-(2-isopropylphenyl)cyclobutane-1-carboxamide] as the molecule, how does the IC50 [1] read?
Answer: 10 to 100 nM

Question: `COc1ccc(NC(=O)[C@]2(c3ccccc3C(C)C)C[C@@H](CC(N)=O)C2)c(OC(F)F)n1` [Example 118, trans-3-(2-amino-2-oxoethyl)-N-(2-(difluoromethoxy)-6-methoxypyridin-3-yl)-1-(2-isopropylphenyl)cyclobutane-1-carboxamide] was tested. Which IC50 [1] did it give?
Answer: 10 to 100 nM

Question: For `COc1ccc(NC(=O)[C@]2(c3ccccc3C(C)C)C[C@H](Cc3nnn[nH]3)C2)c(OC(F)F)n1` [Example 119, cis-3-((1H-tetrazol-5-yl)methyl)-N-(2-(difluoromethoxy)-6-methoxypyridin-3-yl)-1-(2-isopropylphenyl)cyclobutane-1-carboxamide], which IC50 [1] is on record?
Answer: 10 to 100 nM

Question: How did the IC50 [1] turn out when `COc1ccc(NC(=O)[C@]2(c3ccccc3C(C)C)C[C@@H](Cc3nnn[nH]3)C2)c(OC(F)F)n1` [Example 120, trans-3-((1H-tetrazol-5-yl)methyl)-N-(2-(difluoromethoxy)-6-methoxypyridin-3-yl)-1-(2-isopropylphenyl)cyclobutane-1-carboxamide] was run?
Answer: < 10 nM
